These are literature values, as cited in patent US12691099B2, “Oral formulations of Edaravone and method of manufacturing thereof” (BDR PHARMACEUTICALS INTERNATIONAL PRIVATE LIMITED, priority 2019, dated 2026).

Usually solubility stands for the dissolved amount per volume that the medium holds.

For data set [1] the following is noted: poor solubility in water and lower lipid permeability.

Converted amounts (≈) assume the structure as drawn.

In the case of `CC1=NN(c2ccccc2)C(=O)C1` [Edaravone, 3-methyl-1-phenyl-2-pyrazolin-5-one], the solubility is 25 µg/mL (≈ 144 µM). For the same molecule, in data set [1], the BCS class result was “Class IV”.
